# Data from patent US7462605B2, “Phosphoramidate compounds and methods of use” (Celmed Oncology (USA), Inc., priority 2002, dated 2008).
# pIC50: −log10 of the molar value. Like-named read-outs stand apart in the source and are kept apart here.
# Tests used:
# W138 (Lung) normal cells = test: alamarBlue growth inhibition, W138; assay type: cell-based, human; settings: 120 hours
# Procedure: (§1) Growth Inhibition Studies. Cells growing exponentially were transferred to 384-well flat bottom tissue culture plates. All cell types were plated at a density of 500 cells per well in 25 μL of complete medium (RPMI 1640+10% fetal bovine serum+antibiotics/antimycotics). After 24 hours (day 0), 25 μL of complete medium containing the experimental compounds over the dose range of 10^ñ3 to 10^ñ10 M were added in triplicate. […] 5 μL of the redox indicator, alamarBlue, was added to each well (10% v/v). After 4 hours incubation at 37° C., fluorescence was monitored at 535 nm excitation and 595 nm emission.
# (§2) Concentration vs. relative fluorescence units (RFU) were plotted, and sigmoid curves were fit using the Hill equation.
# [1] = test system: SW527 (Breast) tumor cells; test: alamarBlue growth inhibition, SW527; assay type: cell-based, human; settings: 120 hours
# Procedure: as §1, §2
# [2] = test system: PC3 (Prostate) tumor cells; test: alamarBlue growth inhibition, PC3; assay type: cell-based, human; settings: 120 hours
# Procedure: as §1, §2
# MRC9 (Lung) normal cells = test: alamarBlue growth inhibition, MRC9; assay type: cell-based, human; settings: 120 hours
# Procedure: as §1, §2
# N1S1 cells = test: alamarBlue cytotoxicity, N1S1 parental; assay type: cell-based; settings: N1S1, Drug Selection None; read-out: NB1011-IC50
# Procedure: as §1, §2
# (§3) Cells were grown and characterized as described above. TS expression level is relative to CCD18co, a normal colon epithelial cell line. Tritium release is background substracted as described in Methods. ND=Not detectable above background.
# [3] = test system: RKO colon cancer cells, TDX selection; test: alamarBlue cytotoxicity, RKO TDX-selected; assay type: cell-based, human; settings: Drug Selection TDX, read-out: NB1011-IC50
# Procedure: as §1, §2, §3
# H630 colon cancer cells = test: alamarBlue cytotoxicity, H630 parental; assay type: cell-based, human; settings: Drug Selection None, read-out: NB1011-IC50
# Procedure: as §1, §2, §3
# [4] = test system: SKHEP1 (Liver) tumor cells; test: alamarBlue growth inhibition, SKHEP1; assay type: cell-based, human; settings: 120 hours
# Procedure: as §1, §2
# A431 (Skin) tumor cells = test: alamarBlue growth inhibition, A431; assay type: cell-based, human; settings: 120 hours
# Procedure: as §1, §2
# C/HT1080 cells = test: alamarBlue cytotoxicity, control-transfected HT1080; assay type: cell-based, human; settings: C/HT1080, TS Level 100%
# Procedure: (§4) Cell lines and transfection. HT1080 cells were grown in PRM11640 medium supplemented with 10% fetal calf serum, and transfected with GFP-TS expression vector. 48 hours after, transfection cells were tripsinized and replated in culture medium containing 750 μg/ml G418. After selection with G418 for two weeks, surviving cells were sorted based upon fluorescence expression. One clone with higher fluorescence expression (named as TSH/HT1080) and one clone with lower fluorescence expression (named as TSL/HT1080) were selected and expanded into cells lines. The stable HT1080 cells transfected with pEGFP-C3 were used as control.
# (§5) Construction of GFP-TS expression vector. […] The cDNA was cloned into HindIII and KpnI sites of mammalian expression vector pEGFP-C3 (Clontech Laboratories. Inc., Palo Alto, Calif.), in-frame with GFP sequence. The cDNA insert was confirmed by DNA sequencing.
# (§6) Growth Inhibition Studies. Cells growing exponentially were transferred to 384-well flat bottom tissue culture plates. All cell types were plated at a density of 500 cells per well in 25 μL of complete medium (RPMI 1640+10% fetal bovine serum+antibiotics/antimycotics). […] After 4 hours incubation at 37° C., fluorescence was monitored at 535 nm excitation and 595 nm emission.
# as §2
# NHLF (Lung) normal cells = test: alamarBlue growth inhibition, NHLF; assay type: cell-based, human; settings: 120 hours
# Procedure: as §1, §2
# [5] = test system: COLO205 (Colon) tumor cells; test: alamarBlue growth inhibition, COLO205; assay type: cell-based, human; settings: 120 hours
# Procedure: as §1, §2
# [6] = test system: NPRSC (Prostate) normal cells; test: alamarBlue growth inhibition, NPRSC; assay type: cell-based, human; settings: 120 hours
# Procedure: as §1, §2
# TSL/HT1080 cells = test: alamarBlue cytotoxicity, HT1080 expressing low GFP-TS; assay type: cell-based, human; settings: TSL/HT1080, TS Level 409%
# Procedure: as §4, §5, §6, §2
# [7] = test system: MCF7 (Breast) tumor cells; test: alamarBlue growth inhibition, MCF7; assay type: cell-based, human
# Procedure: as §1, §2
# H527 (Skin) normal cells = test: alamarBlue growth inhibition, H527; assay type: cell-based, human; settings: 120 hours
# Procedure: as §1, §2
# [8] = test system: DET551 (Skin) normal cells; test: alamarBlue growth inhibition, DET551; assay type: cell-based, human; settings: 120 hours
# Procedure: as §1, §2
# [9] = test system: N1S1 cells, 5FU selection; test: alamarBlue cytotoxicity, N1S1 5FU-selected; assay type: cell-based; settings: N1S1, Drug Selection 5FU; read-out: NB1011-IC50
# Procedure: as §1, §2, §3
substance,measurement,setting,value
5-(2-Bromovinyl)-2′-deoxyuridine phenyl N-methoxy-L-alaninyl phosphoramidate [NB1011],pIC50,W138 (Lung) normal cells,3.47
same,pIC50,[1],3.37
same,pIC50,[2],3.74
same,pIC50,MRC9 (Lung) normal cells,3.52
same,pIC50,N1S1 cells,3.31
same,pIC50,[3],4.55
same,pIC50,H630 colon cancer cells,3.38
same,pIC50,[4],3.61
same,pIC50,A431 (Skin) tumor cells,3.58
same,pIC50,C/HT1080 cells,3.49
same,pIC50,NHLF (Lung) normal cells,3.86
same,pIC50,[5],3.98
same,pIC50,[6],3.43
same,pIC50,TSL/HT1080 cells,3.71
same,pIC50,"[7]; MCF7, alamarBlue, read-out: IC50",3.54
same,pIC50,"[7]; MCF7 Breast cancer, Drug Selection None, read-out: NB1011-IC50",3.49
same,pIC50,"[7]; Tumor Cells: MCF7 (Breast), alamarBlue, 120 hours, read-out: IC50",3.85
same,pIC50,H527 (Skin) normal cells,3.56
same,pIC50,[8],3.58
same,pIC50,[9],3.69
